molecular target: BRD4 (Homo sapiens, UniProt O60885); assay: Time resolved fluorescence resonance energy transfer (TR-FRET) binding assay, bromodomain BRD4; details: one of the FRET assays described; read-out: FRET BRD4 IC50

SMILES | IC50
[2H]C([2H])([2H])N1CCN(c2ccc3c4ncc(-c5c(C)nnn5C)cc4n([C@H](c4ccccc4F)C4CCOCC4)c3n2)CC1 [Example 250, 5-(Dimethyl-1H-1,2,3-triazol-5-yl)-8-[(S)-(2-fluorophenyl)(oxan-4-yl)methyl]-11-[4-(^2H3)methylpiperazin-1-yl]-3,8,10-triazatricyclo[7.4.0.0^2,^7]trideca-1(13),2(7),3,5,9,11-hexaene] | < 10 nM
[2H]C([2H])([2H])c1nnn(C)c1-c1cnc2c3ccc(N4CCNCC4)nc3n([C@H](c3ccccc3)C3CCOCC3)c2c1 [Example 251, 5-[4-(^2H3)Methyl-1-methyl-1H-1,2,3-triazol-5-yl]-8-[(S)-oxan-4-yl(phenyl)methyl]-11-(piperazin-1-yl)-3,8,10-triazatricyclo[7.4.0.0^2,^7]trideca-1(13),2(7),3,5,9,11-hexaene] | < 10 nM
[2H]C([2H])([2H])c1nnn(C)c1-c1cnc2c3ccc(N4C[C@@H](C)N[C@@H](C)C4)nc3n([C@H](c3ccccc3)C3CCOCC3)c2c1 [Example 252, 11-[(3R,5S)-3,5-Dimethylpiperazin-1-yl]-5-[4-(^2H3)methyl-1-methyl-1H-1,2,3-triazol-5-yl]-8-[(S)-oxan-4-yl(phenyl)methyl]-3,8,10-triazatricyclo[7.4.0.0^2,^7]trideca-1(13),2(7),3,5,9,11-hexaene] | < 1 nM
COc1nnn(C)c1-c1cnc2c3ccc(-c4c(OC)nnn4C)nc3n([C@H](c3ccccc3F)C3CCOCC3)c2c1 [Example 253, 8-[(S)-(2-Fluorophenyl)(oxan-4-yl)methyl]-5,11-bis(4-methoxy-1-methyl-1H-1,2,3-triazol-5-yl)-3,8,10-triazatricyclo[7.4.0.0^2,^7]trideca-1(13),2(7),3,5,9,11-hexaene] | < 10 nM
COc1nnn(C)c1-c1cnc2c3ccc(N4CCN(C)CC4)nc3n([C@H](c3ccccc3F)C3CCOCC3)c2c1 [Example 254, 8-[(S)-(2-Fluorophenyl)(oxan-4-yl)methyl]-5-(4-methoxy-1-methyl-1H-1,2,3-triazol-5-yl)-11-(4-methylpiperazin-1-yl)-3,8,10-triazatricyclo[7.4.0.0^2,^7]trideca-1(13),2(7),3,5,9,11-hexaene] | < 1 nM
CNCCN(C)c1ccc2c3ncc(-c4c(OC)nnn4C)cc3n([C@H](c3ccccc3F)C3CCOCC3)c2n1 [Example 255, 8-[(S)-(2-Fluorophenyl)(oxan-4-yl)methyl]-5-(4-methoxy-1-methyl-1H-1,2,3-triazol-5-yl)-N-methyl-N-[2-(methylamino)ethyl]-3,8,10-triazatricyclo[7.4.0.0^2,^7]trideca-1(13),2(7),3,5,9,11-hexaen-11-amine] | < 10 nM
COc1nnn(C)c1-c1cnc2c3ccc(N4CCS(=O)(=O)CC4)nc3n([C@H](c3ccccc3F)C3CCOCC3)c2c1 [Example 256, 4-{8-[(S)-(2-Fluorophenyl)(oxan-4-yl)methyl]-5-(4-methoxy-1-methyl-1H-1,2,3-triazol-5-yl)-3,8,10-triazatricyclo[7.4.0.0^2,^7]trideca-1(13),2(7),3,5,9,11-hexaen-11-yl}-1λ^6,4-thiomorpholine-1,1-dione] | < 10 nM
CCN(CCN(C)C)c1ccc2c3ncc(-c4c(OC)nnn4C)cc3n([C@H](c3ccccc3F)C3CCOCC3)c2n1 [Example 257, N-[2-(Dimethylamino)ethyl]-N-ethyl-8-[(S)-(2-fluorophenyl)(oxan-4-yl)methyl]-5-(4-methoxy-1-methyl-1H-1,2,3-triazol-5-yl)-3,8,10-triazatricyclo[7.4.0.0^2,^7]trideca-1(13),2(7),3,5,9,11-hexaen-11-amine] | < 1 nM
Cc1nnn(C)c1-c1cnc2c3ccc(N4CCN(C(=O)C5CC5)CC4)nc3n([C@H](c3ccc(F)cc3)C3CCOCC3)c2c1 [Example 258, 11-(4-Cyclopropanecarbonylpiperazin-1-yl)-5-(dimethyl-1H-1,2,3-triazol-5-yl)-8-[(S)-(4-fluorophenyl)(oxan-4-yl)methyl]-3,8,10-triazatricyclo[7.4.0.0^2,^7]trideca-1(13),2(7),3,5,9,11-hexaene] | < 10 nM
[2H]C([2H])([2H])c1nnn(C)c1-c1cnc2c3ccc(Cl)nc3n(C(c3ccccc3)C3CCC(F)(F)CC3)c2c1 (stereo not shown) [Example 259, 11-Chloro-8-[(4,4-difluorocyclohexyl)(phenyl)methyl]-5-[4-(^2H3)methyl-1-methyl-1H-1,2,3-triazol-5-yl]-3,8,10-triazatricyclo[7.4.0.0^2,^7]trideca-1(13),2(7),3,5,9,11-hexaene] | < 1500 nM
[2H]C([2H])([2H])c1nnn(C)c1-c1cnc2c3ccc(-c4c(C([2H])([2H])[2H])nnn4C)nc3n(C(c3ccccc3)C3CCC(F)(F)CC3)c2c1 (stereo not shown) [Example 260, 8-[(4,4-Difluorocyclohexyl)(phenyl)methyl]-5,11-bis[4-(^2H3)methyl-1-methyl-H-1,2,3-triazol-5-yl]-3,8,10-triazatricyclo[7.4.0.0^2,^7]trideca-1(13),2(7),3,5,9,11-hexaene] | < 10 nM
[2H]C([2H])([2H])c1nnn(C)c1-c1cnc2c3ccc(-c4c(C([2H])([2H])[2H])nnn4C)nc3n(C(c3ccccc3)C3CCC(F)(F)CC3)c2c1 (stereo not shown) [Example 261, 8-[(4,4-Difluorocyclohexyl)(phenyl)methyl]-5,11-bis[4-(^2H3)methyl-1-methyl-H-1,2,3-triazol-5-yl]-3,8,10-triazatricyclo[7.4.0.0^2,^7]trideca-1(13),2(7),3,5,9,11-hexaene] | < 10 nM
Cc1nnn(C)c1-c1cnc2c3ccc(N4CCN(C(=O)N(C)C)CC4)nc3n([C@H](c3ccccc3F)C3CCOCC3)c2c1 [Example 268, 4-[5-(Dimethyl-1H-1,2,3-triazol-5-yl)-8-[(S)-(2-fluorophenyl)(oxan-4-yl)methyl]-3,8,10-triazatricyclo[7.4.0.0^2,^7]trideca-1(13),2(7),3,5,9,11-hexaen-11-yl]-N,N-dimethylpiperazine-1-carboxamide] | < 1 nM
Cc1nnn(C)c1-c1cnc2c3ccc(N4CCN(S(=O)(=O)N(C)C)CC4)nc3n([C@H](c3ccccc3F)C3CCOCC3)c2c1 [Example 269, 4-[5-(Dimethyl-1H-1,2,3-triazol-5-yl)-8-[(S)-(2-fluorophenyl)(oxan-4-yl)methyl]-3,8,10-triazatricyclo[7.4.0.0^2,^7]trideca-1(13),2(7),3,5,9,11-hexaen-11-yl]-N,N-dimethylpiperazine-1-sulfonamide] | < 1 nM
Cc1nnn(C)c1-c1cnc2c3ccc(N4CCN(C5CCN(C)CC5)CC4)nc3n([C@H](c3ccccc3F)C3CCOCC3)c2c1 [Example 270, 5-(Dimethyl-1H-1,2,3-triazol-5-yl)-8-[(S)-(2-fluorophenyl)(oxan-4-yl)methyl]-11-[4-(1-methylpiperidin-4-yl)piperazin-1-yl]-3,8,10-triazatricyclo[7.4.0.0^2,^7]trideca-1(13),2(7),3,5,9,11-hexaene] | < 1 nM
Cc1nnn(C)c1-c1cnc2c3ccc(N4CCC(C(=O)N(C)C)CC4)nc3n([C@H](c3ccccc3F)C3CCOCC3)c2c1 [Example 271, 1-[5-(Dimethyl-1H-1,2,3-triazol-5-yl)-8-[(S)-(2-fluorophenyl)(oxan-4-yl)methyl]-3,8,10-triazatricyclo[7.4.0.0^2,^7]trideca-1(13),2(7),3,5,9,11-hexaen-11-yl]-N,N-dimethylpiperidine-4-carboxamide] | < 10 nM
Cc1nnn(C)c1-c1cnc2c3ccc(N4CCC(C#N)CC4)nc3n([C@H](c3ccccc3F)C3CCOCC3)c2c1 [Example 274, 1-[5-(Dimethyl-1H-1,2,3-triazol-5-yl)-8-[(S)-(2-fluorophenyl)(oxan-4-yl)methyl]-3,8,10-triazatricyclo[7.4.0.0^2,^7]trideca-1(13),2(7),3,5,9,11-hexaen-11-yl]piperidine-4-carbonitrile] | < 10 nM
Cc1nnn(C)c1-c1cnc2c3ccc(NC(=O)C(C)C)nc3n([C@H](c3ccccc3F)C3CCOCC3)c2c1 [Example 275, N-[5-(Dimethyl-1H-1,2,3-triazol-5-yl)-8-[(S)-(2-fluorophenyl)(oxan-4-yl)methyl]-3,8,10-triazatricyclo[7.4.0.0^2,^7]trideca-1(13),2(7),3,5,9,11-hexaen-11-yl]-2-methylpropanamide] | < 10 nM
Cc1nnn(C)c1-c1cnc2c3ccc(NC(=O)C4CC4)nc3n([C@H](c3ccccc3F)C3CCOCC3)c2c1 [Example 276, N-[5-(Dimethyl-1H-1,2,3-triazol-5-yl)-8-[(S)-(2-fluorophenyl)(oxan-4-yl)methyl]-3,8,10-triazatricyclo[7.4.0.0^2,^7]trideca-1(13),2(7),3,5,9,11-hexaen-11-yl]cyclopropanecarboxamide] | < 10 nM
[2H]C([2H])([2H])c1nnn(C)c1-c1cnc2c3c(NCC(F)(F)F)ncc(S(C)(=O)=O)c3n([C@H](c3ccccc3)C3CCOCC3)c2c1 [Example 277, 10-Methanesulfonyl-5-[4-(^2H3)methyl-1-methyl-1H-1,2,3-triazol-5-yl]-8-[(S)-oxan-4-yl(phenyl)methyl]-N-(2,2,2-trifluoroethyl)-3,8,12-triazatricyclo[7.4.0.0^2,^7]trideca-1(13),2(7),3,5,9,11-hexaen-13-amine] | < 1 nM
[2H]C([2H])([2H])c1nnn(C)c1-c1cnc2c3cnc(C(C)(C)O)c(F)c3n([C@H](c3ccccc3)C3CCOCC3)c2c1 [Example 278, 2-{10-Fluoro-5-[4-(^2H3)methyl-1-methyl-1H-1,2,3-triazol-5-yl]-8-[(S)-oxan-4-yl(phenyl)methyl]-3,8,12-triazatricyclo[7.4.0.0^2,^7]trideca-1(13),2(7),3,5,9,11-hexaen-11-yl}propan-2-ol] | < 1 nM
[2H]C([2H])([2H])c1nnn(C)c1-c1cnc2c3c(OCC4CC4(F)F)nccc3n([C@H](c3ccccc3)C3CCOCC3)c2c1 (stereo partly drawn) [Example 279, 13-[(2,2-Difluorocyclopropyl)methoxy]-5-[4-(^2H3)methyl-1-methyl-1H-1,2,3-triazol-5-yl]-8-[(S)-oxan-4-yl(phenyl)methyl]-3,8,12-triazatricyclo[7.4.0.0^2,^7]trideca-1(9),2(7),3,5,10,12-hexaene] | < 1 nM
